# Results reported in patent US4001325A, “α-Chloroacetanilide selective herbicides” (Diamond Shamrock Corporation, priority 1973, dated 1977).
# Experiments:
# Barnyardgrass = assay: Example 17 selective herbicidal activity in corn crop, weed kill; format: in vivo, Echinochloa crusgalli; conditions: Echinochloa crus-galli, 3-4 weeks after planting
# Text: (§1) This example illustrates the selective herbicidal activity of two of the presently preferred compounds of this invention against various weed species in a corn crop.
# (§2) Plots of light sandy soil, cleared of all weeds, are uniformly treated with aqueous dispersions prepared from an emulsifiable concentrate containing 2- 4 pounds of active ingredient per gallon. Diluted aqueous dispersions are applied as surface treatments at 2.0, 1.0, 0.5, and 0.25 pound of active ingredient per acre (lb/A).
# (§3) The treated test plots are sown to corn and with seeds of the following weed species:
# (§4) Three to four weeks after planting, the degree of damage to both the corn stands and the weed plants is assessed from a rating of 0% (no injury) to 100% (complete destruction).
# Yellow Foxtail [1] = assay: as above; format: in vivo, Setaria lutescens; conditions: Setaria, 3-4 weeks after planting
# Text: as §1, §2, §3, §4
# Johnsongrass = assay: as above; format: in vivo; conditions: Sorghum halepense, 3-4 weeks after planting
# Text: as §1, §2, §3, §4
# Velvetleaf = assay: as above; format: in vivo; conditions: Abutilon theophrasti, 3-4 weeks after planting
# Text: as §1, §2, §3, §4
# Fall Panicum = assay: as above; format: in vivo; conditions: Panicum dichotomiflorum, 3-4 weeks after planting
# Text: as §1, §2, §3, §4
# Soybeans = assay: Example 18 phytotoxic effects on crop stands in different soils; format: in vivo, soybean
# Experimental: (§5) To further illustrate the herbicidal activity of compounds of this invention in different types of soil as would be encountered in different crop growing localities, a preemergence herbicide test is conducted generally as outlined previously herein. Two light sandy soils are employed containing 0.7% and 1.8% organic matter (O.M.), respectively, along with two loam-type, heavier soils containing either 2.0% or 5-5.5% organic matter (O.M.).
# (§6) The test plots are all sprayed uniformly with formulations of the test compounds providing 2.0, 1.0, 0.5, and 0.25 pound of active chemical per acre (lb/A).
# (§7) Prior to treatment, the soil plots are sown to field corn, soybean, and grain sorghum crops and seeds of barnyard-grass and yellow foxtail.
# Three weeks after planting, the percent control of plant growth is rated from 0% (no injury) to 100% (total destruction). The results obtained are as follows:
# Phytotoxic effects on the crop stands are similarly rated with the following results: […]
# Giant Foxtail = assay: Field preemergence test, weed control; format: in vivo; conditions: 3-4 weeks after planting
# Text: (§8) Test plots of fertilized, light sandy soil containing 0.7% organic matter are sprayed uniformly with aqueous suspensions prepared from emulsifiable concentrates containing 12%, by weight, of the test chemicals diluted to provide dosage rates of the test compounds corresponding to 2.0, 1.0, 0.5, and 0.25 pound per acre (lb/A). The plots are then sown with seeds of the following crop plants: sweet corn, cotton (Coker 413) and soybeans, var. Davis. Seeds of the following weed plants are planted: redroot pigweed, prickly sida, common lambsquarter, goosegrass and giant foxtail.
# (§9) Three to four weeks after planting, percent control (plant kill) of the test plants is estimated, from a rating of 0 which denotes no injury to the plant up to 100 which denotes complete destruction. The herbicidal action of the test compounds obtained on the weed species is as follows: […]
# Redroot Pigweed = assay: Field preemergence test, weed control; format: in vivo; conditions: 3-4 weeks after planting
# Text: as §8, §9
# Common Lambsquarter = assay: Field preemergence test, weed control; format: in vivo; conditions: 3-4 weeks after planting
# Text: as §8, §9
# Prickly Sida = assay: Field preemergence test, weed control; format: in vivo; conditions: 3-4 weeks after planting
# Text: as §8, §9
# Goosegrass = assay: Field preemergence test, weed control; format: in vivo; conditions: 3-4 weeks after planting
# Text: as §8, §9
# Yellow Foxtail [2] = assay: Example 18 preemergence herbicide test in different soils, % control; format: in vivo; conditions: three weeks
# Experimental: as §5, §6, §7
# Three weeks after planting, the percent control of plant growth is rated from 0% (no injury) to 100% (total destruction).
# Cotton = assay: Field preemergence test, phytotoxic effects on crop; format: in vivo, cotton (Coker 413)
# Text: as §8
# (§10) Three to four weeks after planting, percent control (plant kill) of the test plants is estimated, from a rating of 0 which denotes no injury to the plant up to 100 which denotes complete destruction. The herbicidal action of the test compounds obtained on the weed species is as follows:
# (§11) Phytotoxic effects observed on the crop species is estimated with results as follows: […]
# Corn [3] = assay: as above; format: in vivo, sweet corn
# Text: as §8, §10, §11
# corn [4] = assay: Example 17 damage to corn crop; format: in vivo; conditions: 2 lb/A
# Text: as §1, §2, §3, §4
# [5] = 0.5 lb/A, Heavy Soil 5-5.5% O.M.
# [6] = 0.5 lb/A, Medium Soil 2.0% O.M.
# [7] = 1.0 lb/A, Heavy Soil 5-5.5% O.M.
# [8] = 1.0 lb/A, Medium Soil 2.0% O.M.
# [9] = 2.0 lb/A, Heavy Soil 5-5.5% O.M.
# [10] = 2.0 lb/A, Medium Soil 2.0% O.M.
smiles,measurement,setting,value
"C#CCN(C(=O)CCl)c1c(CC)cccc1CC [Example 9, 2-Chloro-2',6'-diethyl-N-propargylacetanilide]",mortality at 280.212 g/ha,Barnyardgrass; 0.25 lb/A,68%
same,mortality at 560.425 g/ha,Barnyardgrass; 0.5 lb/A,98%
same,mortality at 1120.85 g/ha,Barnyardgrass; 1.0 lb/A,98%
same,mortality at 2241.7 g/ha,Barnyardgrass; 2.0 lb/A,100%
same,mortality at 280.212 g/ha,Yellow Foxtail [1]; 0.25 lb/A,80%
same,mortality at 560.425 g/ha,Yellow Foxtail [1]; 0.5 lb/A,95%
same,mortality at 1120.85 g/ha,Yellow Foxtail [1]; 1.0 lb/A,100%
same,mortality at 2241.7 g/ha,Yellow Foxtail [1]; 2.0 lb/A,100%
same,mortality at 280.212 g/ha,Johnsongrass; 0.25 lb/A,0%
same,mortality at 560.425 g/ha,Johnsongrass; 0.5 lb/A,37%
same,mortality at 1120.85 g/ha,Johnsongrass; 1.0 lb/A,80%
same,mortality at 2241.7 g/ha,Johnsongrass; 2.0 lb/A,100%
same,mortality at 280.212 g/ha,Velvetleaf; 0.25 lb/A,0%
same,mortality at 560.425 g/ha,Velvetleaf; 0.5 lb/A,0%
same,mortality at 1120.85 g/ha,Velvetleaf; 1.0 lb/A,6%
same,mortality at 2241.7 g/ha,Velvetleaf; 2.0 lb/A,18%
same,mortality at 280.212 g/ha,Fall Panicum; 0.25 lb/A,73%
same,mortality at 560.425 g/ha,Fall Panicum; 0.5 lb/A,88%
same,mortality at 1120.85 g/ha,Fall Panicum; 1.0 lb/A,95%
same,mortality at 2241.7 g/ha,Fall Panicum; 2.0 lb/A,100%
same,"% Phytotoxicity, Soybeans",Soybeans; [5],0%
same,"% Phytotoxicity, Soybeans",Soybeans; [6],0%
same,"% Phytotoxicity, Soybeans","Soybeans; 0.5 lb/A, Sand 0.7% O.M.",0%
same,"% Phytotoxicity, Soybeans","Soybeans; 0.5 lb/A, Sand 1.8% O.M.",0%
same,"% Phytotoxicity, Soybeans",Soybeans; [7],0%
same,"% Phytotoxicity, Soybeans",Soybeans; [8],0%
same,"% Phytotoxicity, Soybeans","Soybeans; 1.0 lb/A, Sand 0.7% O.M.",0%
same,"% Phytotoxicity, Soybeans","Soybeans; 1.0 lb/A, Sand 1.8% O.M.",0%
same,"% Phytotoxicity, Soybeans",Soybeans; [9],0%
same,"% Phytotoxicity, Soybeans",Soybeans; [10],0%
same,"% Phytotoxicity, Soybeans","Soybeans; 2.0 lb/A, Sand 0.7% O.M.",0%
same,"% Phytotoxicity, Soybeans","Soybeans; 2.0 lb/A, Sand 1.8% O.M.",0%
same,"% Weed Control, Giant Foxtail",Giant Foxtail; 0.25 lb/A,42%
same,"% Weed Control, Giant Foxtail",Giant Foxtail; 0.5 lb/A,85%
same,"% Weed Control, Giant Foxtail",Giant Foxtail; 1.0 lb/A,97%
same,"% Weed Control, Giant Foxtail",Giant Foxtail; 2.0 lb/A,100%
same,"% Weed Control, Redroot Pigweed",Redroot Pigweed; 0.25 lb/A,75%
same,"% Weed Control, Redroot Pigweed",Redroot Pigweed; 0.5 lb/A,93%
same,"% Weed Control, Redroot Pigweed",Redroot Pigweed; 1.0 lb/A,100%
same,"% Weed Control, Redroot Pigweed",Redroot Pigweed; 2.0 lb/A,100%
same,"% Weed Control, Common Lambsquarter",Common Lambsquarter; 0.25 lb/A,95%
same,"% Weed Control, Common Lambsquarter",Common Lambsquarter; 0.5 lb/A,100%
same,"% Weed Control, Common Lambsquarter",Common Lambsquarter; 1.0 lb/A,100%
same,"% Weed Control, Common Lambsquarter",Common Lambsquarter; 2.0 lb/A,100%
same,"% Weed Control, Prickly Sida",Prickly Sida; 0.25 lb/A,0%
same,"% Weed Control, Prickly Sida",Prickly Sida; 0.5 lb/A,80%
same,"% Weed Control, Prickly Sida",Prickly Sida; 1.0 lb/A,42%
same,"% Weed Control, Prickly Sida",Prickly Sida; 2.0 lb/A,93%
same,"% Weed Control, Goosegrass",Goosegrass; 0.25 lb/A,94%
same,"% Weed Control, Goosegrass",Goosegrass; 0.5 lb/A,98%
same,"% Weed Control, Goosegrass",Goosegrass; 1.0 lb/A,100%
same,"% Weed Control, Goosegrass",Goosegrass; 2.0 lb/A,100%
same,"% Control, Yellow Foxtail",Yellow Foxtail [2]; [5],90%
same,"% Control, Yellow Foxtail",Yellow Foxtail [2]; [6],90%
same,"% Control, Yellow Foxtail","Yellow Foxtail [2]; 0.5 lb/A, Sand 0.7% O.M.",50%
same,"% Control, Yellow Foxtail","Yellow Foxtail [2]; 0.5 lb/A, Sand 1.8% O.M.",85%
same,"% Control, Yellow Foxtail",Yellow Foxtail [2]; [7],100%
same,"% Control, Yellow Foxtail",Yellow Foxtail [2]; [8],100%
same,"% Control, Yellow Foxtail","Yellow Foxtail [2]; 1.0 lb/A, Sand 0.7% O.M.",70%
same,"% Control, Yellow Foxtail","Yellow Foxtail [2]; 1.0 lb/A, Sand 1.8% O.M.",80%
same,"% Control, Yellow Foxtail",Yellow Foxtail [2]; [9],100%
same,"% Control, Yellow Foxtail",Yellow Foxtail [2]; [10],100%
same,"% Control, Yellow Foxtail","Yellow Foxtail [2]; 2.0 lb/A, Sand 0.7% O.M.",100%
same,"% Control, Yellow Foxtail","Yellow Foxtail [2]; 2.0 lb/A, Sand 1.8% O.M.",100%
same,"% Crop Kill, Cotton",Cotton; 1.0 lb/A,0%
same,"% Crop Kill, Cotton",Cotton; 2.0 lb/A,3%
same,"% Crop Kill, Corn",Corn [3]; 1.0 lb/A,0%
same,"% Crop Kill, Corn",Corn [3]; 2.0 lb/A,3%
same,phytotoxic effects on corn,corn [4],no phytotoxic effects
